In paper PMC7918823, “Novel Potent and Selective DPP-4 Inhibitors: Design, Synthesis and Molecular Docking Study of Dihydropyrimidine Phthalimide Hybrids” (Pharmaceuticals, 2021):

How the values were obtained:
[1] = target: T1, recombinant human DPP-4 (Homo sapiens, UniProt P27487); assay: In vitro DPP-4 inhibition assay (continuous fluorometric, Gly-Pro-AMC); format: biochemical; details: for Fold DPP-4 inhibitory activity relative to alogliptin: from IC50 values, versus alogliptin; for IC50: recombinant human DPP-4, mean ± SE of four replicates
T1 construct: purchased Sigma Aldrich
Method: (§1) DPP-4 inhibition was assessed, as previously described, based on a continuous fluorometric assay method in which the substrate Gly-Pro-AMC (Gly-Pro-7-amido-4-methylcoumarin hydrobromide) was split by DPP-4 to release fluorescent aminomethyl coumarin (AMC). The liberated AMC was continuously monitored using an excitation wavelength of 360 nm and an emission wavelength of 460 nm using an EnVision microplate reader (PerkinElmer, Waltham, MA, USA). The reaction mixture consisted of different concentrations of the synthesized hybrids 10a–j, 20 µU/µL of recombinant human DPP-4 (Sigma Aldrich, St. Louis, MO, USA), 10 µM Gly-Pro-AMC (Sigma Aldrich, St. Louis, MO, USA) and assay buffer (150 mM NaCl, 25 mM 4-(2-hydroxyethyl)-1-piperazineethanesulfonic acid (HEPES), 0.12 mg/ml bovine serum albumin (BSA)) and pH of 7.5. The assay was carried out in quadruplicate. IC50 was calculated using GraphPad Prism 8 software (San Diego, CA, USA). Similar to the DPP-4 assay, DPP-8 and DPP-9 inhibition assay was performed and the pH of the assay buffer was 8.

[2] = target: DPP-8 (Homo sapiens, UniProt Q6V1X1); assay: In vitro DPP-8 inhibition assay; format: biochemical; details: assay buffer pH 8
Method: as §1

[3] = target: DPP-9 (Homo sapiens, UniProt Q86TI2); assay: In vitro DPP-9 inhibition assay; format: biochemical; details: assay buffer pH 8
Method: as §1

[4] = tested on: HFD-induced type 2 diabetic rats; assay: Oral glucose tolerance test after chronic treatment in HFD-induced type 2 diabetic rats; format: in vivo, SD rats; details: for Glucose tolerance (AUC of OGTT versus non-treated diabetic group): 10 mg/kg/day oral, in absence of MET; for Reduction of AUC of OGTT by MET addition: hybrid 10 mg/kg/day oral plus MET 150 mg/kg/day
Source text: After acclimatization period, rats were randomly divided into 25 groups, each of seven rats. The first group was normal control group which maintained on normal rat chow for the entire experiment period (16 weeks). The second group served as diabetic control group in which T2DM was induced by HFD that consisted of casein (30%), raw beef fat (Suet, 40%), wheat flour (7%), glucose (10%), salt mixture (6%), vitamin mixture (3%), and bran (4%), for 16 weeks. […] At the end of treatment regimen that lasted for four weeks; using our synthesized hybrids 10a–j with and without MET, rats were fasted overnight (12 h) with free access to water. Oral glucose tolerance test (OGTT) was performed as previously described. […] Roche Diagnostics, Rotkreuz, Switzerland).

[5] = Antioxidant activity (DPPH method); details: 100 µM compound, 100 µM DPPH, 20 min, mean ± SE of four replicates
Method: DPPH (1,1-diphenyl-2-picrylhydrazyl) free radical is stable at rt and has a purple colour with a maximum absorption at 517 nm. This free radical is reduced by antioxidant molecules into 1,1-diphenyl-2-picrylhydrazine with resultant discolouration of free radical; this discolouration is stoichiometric with regard to the captured electrons. Accordingly, the fluctuation in the absorbance is an indicator for the antioxidant activity. Our synthesized hybrids 10a–j (100 µM) were mixed with DPPH (100 µM) and left for 20 min at rt, the absorbance was measured at 517 nm.

[6] = Cytotoxicity test (MTT assay); format: cell-based; details: human, normal hepatic LO2 cells, read-out: cell viability
Method: We assessed any possible cytotoxic effect of our synthesized hybrids 10a–j on hepatic LO2 cells using MTT assay. The cells, in DMEM (Gibco, Invitrogen), were seeded in 96 well plates at density of 1 × 10^4/well. The synthesized compounds were added to the cells and incubated for 48 h at 37 °C and 5% CO2. Then, MTT reagent was added and the cells were re-incubated for further 4 h. After discarding the supernatants, the formed formazan crystals were dissolved in DMSO. The intensity of color was assessed using microplate reader (Bio-Rad Laboratories, Hercules, CA, USA) at 490 nm wavelength.

[7] = target: T2, blood DPP-4 activity (Rattus norvegicus, UniProt P14740); assay: In vivo DPP-4 inhibition assay (blood DPP-4 activity); details: SD rats, single oral dose 10 mg/kg
T2 construct: from tissue; host or cells: plasma of male SD rats
Method: The assay was performed using male SD rats (n = 3 per group), as previously described. The synthesized hybrids 10a–j were suspended in […] cellulose (CMC) and administrated orally at a single dose of 10 mg/kg.
Blood samples were collected at time points 0, 6, 12, 24, 36 and 48 h. Plasma samples were extracted and kept at −20 °C until analysis time. Similar to the in vitro DPP-4 assay principle, plasma samples were mixed with equal volumes of Gly-Pro-AMC in assay buffer (100 mM HEPES, 0.1 mg/ml BSA) and pH of 7.5. The liberated AMC was continuously monitored using an excitation wavelength of 360 nm and an emission wavelength of 460 nm using EnVision microplate reader (PerkinElmer, Waltham, MA, USA). The data were expressed as% blood DPP-4 activity.

[8] = combined with MET 150 mg/kg/day oral, four weeks (hybrid 10 mg/kg/day, alogliptin 20 mg/kg/day)

T1 sequence (P27487 whole entry): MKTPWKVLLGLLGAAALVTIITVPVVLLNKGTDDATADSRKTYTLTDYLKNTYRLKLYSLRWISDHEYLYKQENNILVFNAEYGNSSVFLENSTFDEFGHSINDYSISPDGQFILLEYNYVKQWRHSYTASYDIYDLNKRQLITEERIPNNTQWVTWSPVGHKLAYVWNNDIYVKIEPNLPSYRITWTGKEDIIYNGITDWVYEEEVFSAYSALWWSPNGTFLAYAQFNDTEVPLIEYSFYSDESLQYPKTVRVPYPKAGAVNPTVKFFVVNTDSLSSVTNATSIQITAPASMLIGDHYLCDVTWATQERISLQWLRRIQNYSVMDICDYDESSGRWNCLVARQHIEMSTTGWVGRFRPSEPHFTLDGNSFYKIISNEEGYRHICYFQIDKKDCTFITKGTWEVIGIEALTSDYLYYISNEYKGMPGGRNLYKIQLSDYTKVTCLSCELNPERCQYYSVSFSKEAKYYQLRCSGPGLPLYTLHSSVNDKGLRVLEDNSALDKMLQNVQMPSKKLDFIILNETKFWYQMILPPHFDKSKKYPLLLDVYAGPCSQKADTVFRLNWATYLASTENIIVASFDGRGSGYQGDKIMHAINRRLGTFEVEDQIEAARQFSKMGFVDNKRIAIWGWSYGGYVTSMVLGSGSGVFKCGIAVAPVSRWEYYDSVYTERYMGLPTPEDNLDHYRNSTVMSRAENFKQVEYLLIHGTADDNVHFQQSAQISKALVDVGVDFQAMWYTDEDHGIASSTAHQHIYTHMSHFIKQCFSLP
Chain of DPP-8 (Q6V1X1 whole entry): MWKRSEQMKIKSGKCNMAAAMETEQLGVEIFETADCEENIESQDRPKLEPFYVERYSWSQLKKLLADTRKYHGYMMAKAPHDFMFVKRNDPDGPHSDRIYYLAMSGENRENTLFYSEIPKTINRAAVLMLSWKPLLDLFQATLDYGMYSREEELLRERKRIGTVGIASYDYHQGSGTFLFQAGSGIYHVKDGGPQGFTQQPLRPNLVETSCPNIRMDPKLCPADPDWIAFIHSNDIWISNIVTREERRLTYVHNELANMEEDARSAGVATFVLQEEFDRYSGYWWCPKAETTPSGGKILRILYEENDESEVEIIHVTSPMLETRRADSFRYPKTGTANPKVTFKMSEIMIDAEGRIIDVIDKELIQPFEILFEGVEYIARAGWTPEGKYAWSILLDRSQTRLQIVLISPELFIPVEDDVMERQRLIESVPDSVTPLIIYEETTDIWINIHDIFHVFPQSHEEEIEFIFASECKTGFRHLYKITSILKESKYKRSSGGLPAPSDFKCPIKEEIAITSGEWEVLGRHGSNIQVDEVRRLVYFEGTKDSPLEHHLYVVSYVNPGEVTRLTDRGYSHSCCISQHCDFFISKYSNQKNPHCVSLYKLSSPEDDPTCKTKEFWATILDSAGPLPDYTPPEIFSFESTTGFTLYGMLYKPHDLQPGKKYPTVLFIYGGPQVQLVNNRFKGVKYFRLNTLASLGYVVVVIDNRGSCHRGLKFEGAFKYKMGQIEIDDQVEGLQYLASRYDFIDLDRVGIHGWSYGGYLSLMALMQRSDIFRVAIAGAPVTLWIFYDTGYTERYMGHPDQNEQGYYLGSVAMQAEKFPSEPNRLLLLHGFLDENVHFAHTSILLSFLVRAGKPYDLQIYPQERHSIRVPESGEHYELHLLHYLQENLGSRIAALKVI
T2 sequence (P14740 37-767 limits assumed): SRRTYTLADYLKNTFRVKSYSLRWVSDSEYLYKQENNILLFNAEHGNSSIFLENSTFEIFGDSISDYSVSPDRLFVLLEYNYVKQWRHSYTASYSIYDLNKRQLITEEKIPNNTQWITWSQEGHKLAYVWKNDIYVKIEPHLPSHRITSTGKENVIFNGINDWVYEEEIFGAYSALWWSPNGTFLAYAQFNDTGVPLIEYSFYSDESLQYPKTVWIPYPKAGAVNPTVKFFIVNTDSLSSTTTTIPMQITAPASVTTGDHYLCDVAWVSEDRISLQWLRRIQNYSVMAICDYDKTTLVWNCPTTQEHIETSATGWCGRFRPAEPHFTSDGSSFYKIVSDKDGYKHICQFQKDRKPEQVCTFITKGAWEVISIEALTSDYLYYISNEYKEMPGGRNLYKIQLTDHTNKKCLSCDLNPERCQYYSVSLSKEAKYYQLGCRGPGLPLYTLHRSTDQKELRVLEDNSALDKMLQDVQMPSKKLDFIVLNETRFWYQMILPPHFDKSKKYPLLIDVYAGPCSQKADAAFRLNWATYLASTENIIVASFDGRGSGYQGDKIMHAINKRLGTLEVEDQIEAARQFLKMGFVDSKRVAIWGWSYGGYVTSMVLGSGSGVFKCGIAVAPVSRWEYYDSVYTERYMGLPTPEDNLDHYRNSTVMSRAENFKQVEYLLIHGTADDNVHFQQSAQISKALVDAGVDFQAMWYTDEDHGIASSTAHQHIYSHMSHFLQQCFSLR
Chain of DPP-9 (Q86TI2 whole entry): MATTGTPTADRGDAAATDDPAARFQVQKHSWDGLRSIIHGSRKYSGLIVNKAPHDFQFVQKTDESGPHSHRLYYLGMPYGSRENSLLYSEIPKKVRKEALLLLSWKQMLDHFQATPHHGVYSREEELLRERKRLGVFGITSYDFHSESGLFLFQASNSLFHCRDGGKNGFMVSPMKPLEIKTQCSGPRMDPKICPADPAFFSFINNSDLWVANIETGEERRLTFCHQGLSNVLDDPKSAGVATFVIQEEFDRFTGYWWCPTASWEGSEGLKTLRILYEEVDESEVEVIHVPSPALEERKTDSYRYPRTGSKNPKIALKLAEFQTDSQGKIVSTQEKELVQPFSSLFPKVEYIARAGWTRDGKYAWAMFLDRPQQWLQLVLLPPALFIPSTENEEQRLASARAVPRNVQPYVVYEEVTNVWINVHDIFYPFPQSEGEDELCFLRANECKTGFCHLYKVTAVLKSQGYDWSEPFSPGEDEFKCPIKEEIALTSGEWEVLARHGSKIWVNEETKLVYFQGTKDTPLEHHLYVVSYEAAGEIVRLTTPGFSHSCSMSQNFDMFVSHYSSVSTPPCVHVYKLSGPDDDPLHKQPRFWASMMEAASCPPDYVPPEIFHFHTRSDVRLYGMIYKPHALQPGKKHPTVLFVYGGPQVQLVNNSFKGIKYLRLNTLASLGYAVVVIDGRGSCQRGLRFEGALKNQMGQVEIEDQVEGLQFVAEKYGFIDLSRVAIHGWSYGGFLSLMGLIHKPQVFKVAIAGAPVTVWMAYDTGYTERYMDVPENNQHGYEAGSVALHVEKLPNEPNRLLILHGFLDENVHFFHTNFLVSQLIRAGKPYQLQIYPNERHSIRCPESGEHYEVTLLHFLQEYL

Row | Compound | Fold DPP-4 inhibitory activity relative to alogliptin [1] [fold] | IC50 [1] [µM] | IC50 [2] [µM] | IC50 [3] [µM] | Glucose tolerance (AUC of OGTT versus non-treated diabetic group) ([4]; four weeks) | Reduction of AUC of OGTT by MET addition ([4]; four weeks) [%] | % DPPH Scavenging [5] [%] | viability at 48 h, 50 µM [6] [%] | viability at 48 h, 30 µM ([6]; 30 µM) [%] | viability at 48 h, 10 µM ([6]; 10 µM) [%] | DPP-4 blood activity ([7]; 12 h) [%] | DPP-4 blood activity ([7]; 24 h) [%] | DPP-4 blood activity ([7]; 48 h) [%] | AUC of OGTT [4, 8] [mg·min/dL] | AUC of OGTT ([4]; without MET, alogliptin 20 mg/kg/day oral, four weeks) [mg·min/dL]
1 | CN(C)c1ccc(C2C=C(c3ccc(Br)cc3)N=C(SC(=O)c3ccccc3CN3C(=O)c4ccccc4C3=O)N2)cc1 (stereo not drawn) [Compound 10e, S-(4-(4-Bromophenyl)-6-(4-(dimethylamino)phenyl)-1,6-dihydropyrimidin-2-yl) 2-((1,3-dioxoisoindolin-2-yl)methyl)benzothioate] | 4 | 0.00142 ± 0.00011 | > 100 | > 100 | significantly improved glucose tolerance above alogliptin | 22.82 | 87.21 ± 2.58 | – | – | – | – | – | – | – | –
2 | Nc1ccc(C2=CC(c3ccc(Cl)cc3)NC(SC(=O)c3ccccc3CN3C(=O)c4ccccc4C3=O)=N2)cc1 (stereo not drawn) [Compound 10h, S-(4-(4-Aminophenyl)-6-(4-chlorophenyl)-1,6-dihydropyrimidin-2-yl)2-((1,3-dioxoisoindolin-2-yl)methyl)benzothioate] | – | 0.0104 ± 0.00054 | > 100 | > 100 | – | – | 85.74 ± 2.76 | 77.5 | – | – | – | – | – | – | –
3 | Cc1ccc(C2=CC(c3ccc(Cl)cc3)NC(SC(=O)c3ccccc3CN3C(=O)c4ccccc4C3=O)=N2)cc1 (stereo not drawn) [Compound 10d, S-(6-(4-Chlorophenyl)-4-(p-tolyl)-1,6-dihydropyrimidin-2-yl)2-((1,3-dioxoisoindolin-2-yl)methyl)benzothioate] | 2.6 | 0.00219 ± 0.00014 | > 100 | > 100 | – | – | 80.16 ± 1.38 | – | – | – | – | – | – | – | –
4 | O=C(SC1=NC(c2ccc(Cl)cc2)=CC(c2ccc(Cl)cc2)N1)c1ccccc1CN1C(=O)c2ccccc2C1=O (stereo not drawn) [Compound 10c, S-(4,6-Bis(4-chlorophenyl)-1,6-dihydropyrimidin-2-yl)2-((1,3-dioxoisoindolin-2-yl)methyl)benzothioate] | – | 0.0147 ± 0.00082 | > 100 | > 100 | – | – | 52.39 ± 0.93 | 72.5 | 72.6 | – | – | – | – | – | –
5 | COc1ccc(C2C=C(c3ccc(Cl)cc3)N=C(SC(=O)c3ccccc3CN3C(=O)c4ccccc4C3=O)N2)cc1 (stereo not drawn) [Compound 10b, S-(4-(4-Chlorophenyl)-6-(4-methoxyphenyl)-1,6-dihydropyrimidin-2-yl)2-((1,3-dioxoisoindolin-2-yl)methyl)benzothioate] | 1.5 | 0.00378 ± 0.00023 | > 100 | > 100 | – | – | 74.28 ± 1.69 | – | – | – | – | – | – | – | –
6 | O=C(SC1=NC(c2ccc(Cl)cc2)=CC(c2ccccc2)N1)c1ccccc1CN1C(=O)c2ccccc2C1=O (stereo not drawn) [Compound 10f, S-(4-(4-Chlorophenyl)-6-phenyl-1,6-dihydropyrimidin-2-yl)2-((1,3-dioxoisoindolin-2-yl)methyl)benzothioate] | – | 0.0315 ± 0.00241 | > 100 | > 100 | – | – | 57.63 ± 2.14 | – | – | – | – | – | – | – | –
7 | Nc1ccc(C2=CC(c3cccc4ccccc34)NC(SC(=O)c3ccccc3CN3C(=O)c4ccccc4C3=O)=N2)cc1 (stereo not drawn) [Compound 10j, S-(4-(4-Aminophenyl)-6-(naphthalen-1-yl)-1,6-dihydropyrimidin-2-yl)2-((1,3-dioxoisoindolin-2-yl)methyl)benzothioate] | – | 0.00735 ± 0.00036 | > 100 | > 100 | – | – | 93.52 ± 1.65 | – | – | – | – | – | – | – | –
8 | O=C(SC1=NC(c2ccc(Cl)cc2)=CC(c2ccco2)N1)c1ccccc1CN1C(=O)c2ccccc2C1=O (stereo not drawn) [Compound 10i, S-(4-(4-Chlorophenyl)-6-(furan-2-yl)-1,6-dihydropyrimidin-2-yl)2-((1,3-dioxoisoindolin-2-yl)methyl)benzothioate] | 8.6 | 0.00066 ± 4e-05 | > 100 | > 100 | significantly improved glucose tolerance above alogliptin | 21.7 | 69.11 ± 1.44 | – | – | 74.6 | 18.8 | 49.9 | 76 | – | –
9 | S-(4-(4-Chlorophenyl)-6-(4-nitrophenyl)-1,6-dihydropyrimidin-2-yl)2-((1,3-dioxoisoindolin-2-yl)methyl)benzothioate [Compound 10g] | 11.2 | 0.00051 ± 3e-05 | > 100 | > 100 | significantly improved glucose tolerance above alogliptin | 22.93 | 49.47 ± 1.08 | – | – | – | 18.45 | 47 | 73.3 | 13787 ± 201 | –
10 | O=C(SC1=NC(c2ccccc2)=CC(c2ccccc2)N1)c1ccccc1CN1C(=O)c2ccccc2C1=O (stereo not drawn) [Compound 10a, S-(4,6-Diphenyl-1,6-dihydropyrimidin-2-yl)2-((1,3-dioxoisoindolin-2-yl)methyl)benzothioate] | – | 0.0197 ± 0.00127 | > 100 | > 100 | – | – | 73.85 ± 2.46 | – | – | – | – | – | – | – | –
11 | Cn1c(=O)cc(N2CCC[C@@H](N)C2)n(Cc2ccccc2C#N)c1=O [Alogliptin, reference compound] | – | – | – | – | – | – | – | – | – | – | – | – | – | 15451 ± 110 | 20835 ± 146
